The CheMixHub viscosity set

Assay: xn = mol fraction of the nth substance listed

OCCCl + Nc1cccc(Cl)c1
100 kPa
Details | viscosity [mPa·s]
303.15 K, x2 = 0.7938 | 3.925
308.15 K, x2 = 0.3622 | 2.855
313.15 K, x2 = 0.0844 | 1.995
313.15 K, x2 = 0.5814 | 2.795

CC(=O)[O-].[Na+] + O
viscosity [mPa·s], 101.33 kPa
Details | 293.15 K | 298.15 K | 303.15 K
x1 = 0.0046 | 1.082 | 0.965 | 0.863
x1 = 0.0112 | 1.217 | 1.083 | 0.968
x1 = 0.0172 | 1.355 | 1.205 | 1.075
x1 = 0.0215 | 1.466 | 1.302 | 1.16
x1 = 0.0287 | 1.673 | 1.484 | 1.32
x1 = 0.0343 | 1.857 | 1.645 | 1.462
x1 = 0.0402 | 2.076 | 1.836 | 1.629
x1 = 0.0467 | 2.35 | 2.076 | 1.839
x1 = 0.0505 | 2.529 | 2.232 | 1.975
x1 = 0.0572 | 2.883 | 2.54 | 2.244
x1 = 0.0652 | 3.379 | 2.97 | 2.619

CN1CCC[C@H]1c1cccnc1 + O
viscosity [mPa·s]
Details | 298.15 K | 303.15 K | 308.15 K | 318.05 K | 323.15 K
100 kPa, x1 = 0.006 | – | 1.33 | – | 1.15 | –
100 kPa, x1 = 0.1 | – | 7.1 | – | 4.1 | –
100 kPa, x1 = 0.3 | – | 14.2 | – | 6.2 | –
100 kPa, x1 = 0.4 | – | 17.3 | – | 5.8 | –
100 kPa, x1 = 0.5 | – | 11.1 | – | 5 | –
100 kPa, x1 = 0.6 | – | 5.8 | – | 3.1 | –
100 kPa, x1 = 0.7 | – | 4.5 | – | 2.8 | –
100 kPa, x1 = 0.8 | – | 4.8 | – | 3.5 | –
100 kPa, x1 = 0.9 | – | 2 | – | 1.3 | –
101 kPa, x1 = 0.1202 | 11.12 | – | 6.629 | – | 3.436
101 kPa, x1 = 0.1977 | 19.96 | – | 10.4 | – | 4.771
101 kPa, x1 = 0.2424 | 23.83 | – | 12.08 | – | 5.382
101 kPa, x1 = 0.2592 | 25.19 | – | 12.24 | – | 5.493
101 kPa, x1 = 0.2808 | 24.43 | – | 12.19 | – | 5.403
101 kPa, x1 = 0.3047 | 23.6 | – | 12.1 | – | 5.304
101 kPa, x1 = 0.3692 | 21.03 | – | 11.15 | – | 5.146
101 kPa, x1 = 0.4852 | 15.84 | – | 8.817 | – | 4.426
101 kPa, x1 = 0.6052 | 11.43 | – | 6.572 | – | 3.624
101 kPa, x1 = 0.7285 | 7.954 | – | 4.832 | – | 2.834
101 kPa, x1 = 0.8635 | 5.014 | – | 3.811 | – | 2.486

O=S(=O)([O-])[O-].[NH4+].[NH4+] + O
viscosity [mPa·s], 101 kPa
Details | 298.15 K | 308.15 K | 318.15 K
x1 = 0.008901 | 0.9796 | 0.8523 | 0.7339
x1 = 0.01765 | 1.709 | 1.427 | 1.231

O=c1cc[nH]c(=O)[nH]1 + O
viscosity [mPa·s]
Details | 293.15 K | 298.15 K | 303.15 K | 308.15 K | 318.15 K
101 kPa, x1 = 9e-05 | – | 0.879 | – | 0.7172 | 0.5784
101 kPa, x1 = 0.00018 | – | 0.9132 | – | 0.7313 | 0.5871
101 kPa, x1 = 0.00027 | – | 0.9292 | – | 0.7541 | 0.6092
101 kPa, x1 = 0.00036 | – | 0.941 | – | 0.7821 | 0.6272
101.3 kPa, x1 = 0.000113 | 1.004 | – | 0.801 | – | –
101.3 kPa, x1 = 0.000164 | – | 0.892 | – | 0.721 | –
101.3 kPa, x1 = 0.000177 | 1.005 | 0.894 | 0.802 | – | –
101.3 kPa, x1 = 0.0002602 | – | 0.894 | – | – | 0.599
101.3 kPa, x1 = 0.0002747 | 1.006 | – | 0.803 | – | –
101.3 kPa, x1 = 0.0003447 | 1.007 | 0.896 | 0.804 | – | –
101.3 kPa, x1 = 0.0004315 | – | 0.896 | – | – | 0.601
101.3 kPa, x1 = 0.0004415 | – | 0.896 | – | 0.725 | 0.601
101.3 kPa, x1 = 0.0004586 | 1.008 | 0.897 | 0.805 | – | –
101.3 kPa, x1 = 0.0004739 | – | 0.897 | – | 0.725 | 0.601
101.3 kPa, x1 = 0.0005438 | 1.009 | – | 0.806 | – | –

OCCCO + O
Details | viscosity [mPa·s]
293.15 K, 101.33 kPa, x1 = 0.1597 | 5.035
298.15 K, 101 kPa, x1 = 0.0743 | 1.975
298.15 K, 101 kPa, x1 = 0.1661 | 4.203
298.15 K, 101 kPa, x1 = 0.2338 | 6.223
298.15 K, 101 kPa, x1 = 0.3007 | 8.667
298.15 K, 101 kPa, x1 = 0.3965 | 12.43
298.15 K, 101 kPa, x1 = 0.4726 | 15.67
298.15 K, 101 kPa, x1 = 0.5649 | 19.7
298.15 K, 101 kPa, x1 = 0.6713 | 24.72
298.15 K, 101 kPa, x1 = 0.7492 | 28.53
298.15 K, 101 kPa, x1 = 0.8137 | 32
298.15 K, 101 kPa, x1 = 0.9572 | 39.94
298.15 K, 101.3 kPa, x2 = 0.0622 | 37.15
308.15 K, 101 kPa, x1 = 0.095 | 1.65
308.15 K, 101 kPa, x1 = 0.1968 | 4.202
308.15 K, 101 kPa, x1 = 0.3019 | 6.937
308.15 K, 101 kPa, x1 = 0.4108 | 9.362
308.15 K, 101 kPa, x1 = 0.495 | 11.66
308.15 K, 101 kPa, x1 = 0.6009 | 14.63
308.15 K, 101 kPa, x1 = 0.692 | 17.5
308.15 K, 101 kPa, x1 = 0.7938 | 20.41
308.15 K, 101 kPa, x1 = 0.9232 | 24.43
313.15 K, 101.33 kPa, x1 = 0.5449 | 11.05
323.15 K, 101.33 kPa, x1 = 0.7523 | 11.15
